Patent US6344454B1, “Nonsteroidal gestagens” (Schering Aktiengesellschaft, priority 1997, dated 2002)

Key:
[1] = target: T1, gestagen receptor (Oryctolagus cuniculus, UniProt P06186); test: gestagen receptor bonding test (cytosol from rabbit uterus homogenate, 3H-progesterone as reference substance); assay type: binding
T1 construct: using cytosol from rabbit uterus homogenate; from tissue; host or cells: rabbit uterus cytosol
T1 sequence (P06186 1-930): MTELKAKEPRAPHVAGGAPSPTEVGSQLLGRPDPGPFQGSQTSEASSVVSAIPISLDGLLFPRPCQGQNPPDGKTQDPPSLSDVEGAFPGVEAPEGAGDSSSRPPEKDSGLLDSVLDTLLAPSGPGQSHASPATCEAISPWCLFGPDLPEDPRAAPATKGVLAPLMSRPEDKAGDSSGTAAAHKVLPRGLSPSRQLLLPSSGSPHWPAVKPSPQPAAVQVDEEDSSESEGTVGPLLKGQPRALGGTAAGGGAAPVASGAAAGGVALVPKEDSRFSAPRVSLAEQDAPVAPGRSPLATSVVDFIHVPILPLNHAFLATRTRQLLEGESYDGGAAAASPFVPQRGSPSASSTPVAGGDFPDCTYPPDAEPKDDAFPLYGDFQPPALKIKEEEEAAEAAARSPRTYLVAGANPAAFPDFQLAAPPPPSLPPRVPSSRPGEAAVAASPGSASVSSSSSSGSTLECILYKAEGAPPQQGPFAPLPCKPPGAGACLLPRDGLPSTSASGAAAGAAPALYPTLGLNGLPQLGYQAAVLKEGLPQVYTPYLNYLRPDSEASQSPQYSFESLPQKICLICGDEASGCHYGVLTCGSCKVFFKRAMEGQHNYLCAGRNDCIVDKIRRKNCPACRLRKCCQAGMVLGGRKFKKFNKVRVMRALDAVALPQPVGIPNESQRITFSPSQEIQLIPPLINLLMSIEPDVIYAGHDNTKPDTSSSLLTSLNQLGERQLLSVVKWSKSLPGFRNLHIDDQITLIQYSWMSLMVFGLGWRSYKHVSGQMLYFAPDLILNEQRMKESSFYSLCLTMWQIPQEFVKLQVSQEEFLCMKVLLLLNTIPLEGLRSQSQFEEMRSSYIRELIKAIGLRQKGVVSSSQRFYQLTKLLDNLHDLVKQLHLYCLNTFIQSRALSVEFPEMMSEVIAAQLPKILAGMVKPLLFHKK
Description: In the gestagen receptor bonding test on the gestagenic action using cytosol from rabbit uterus homogenate and from ^3H-progesterone as a reference substance, the new compounds show a strong to very strong affinity to the gestagen receptor (see Table 1).

SMILES: CC(C)(CC(O)(CNc1ccc2c(c1)COC2=O)C(F)(F)F)c1ccccc1 (racemic) [Example 65]
- melting point: 154 °C
- Competition Factor (Reference Substance 3H-Progesterone) [1]: 0.17

SMILES: CC(C)Oc1ccc(F)cc1C(C)(C)CC(O)(C(=O)Nc1ccc2c(c1)COC2=O)C(F)(F)F (racemic) [Example 155]
- melting point: 153 to 154 °C

SMILES: CC(C)(CC(O)(C(=O)Nc1ccc2c(c1)COC2=O)C(F)(F)F)c1cccs1 (single isomer, unassigned; (+)) [Example 103 (+)-2-thienyl, (+)-5-[2-hydroxy-4-methyl-4-(2-thienyl)-2-trifluoromethyl-valeroylamino]-phthalide]
- melting point: 166 °C

SMILES: CC(CC(O)(C(=O)Nc1ccc([N+](=O)[O-])c(C(F)(F)F)c1)C(F)(F)F)c1ccccc1 (stereo not shown) [(*) (Melting point 141-142° C.), reference compound]
- Competition Factor (Reference Substance 3H-Progesterone) [1]: 17

SMILES: CC(CC(O)(C(=O)Nc1ccc([N+](=O)[O-])c(C(F)(F)F)c1)C(F)(F)F)c1ccccc1 (stereo not shown) [(*) (Melting point 161° C.), reference compound]
- Competition Factor (Reference Substance 3H-Progesterone) [1]: 2.0

SMILES: COc1cccc(C(C)(C)CC(O)(C(=O)Nc2ccc3c(c2)COC3=O)C(F)(F)F)c1 (stereo not shown) [Example 4, 5-[2-Hydroxy-4-(3-methoxyphenyl)-4-methyl-2-trifluoromethyl-valeroylamino]-phthalide]
- melting point: 129 to 130 °C

SMILES: Cc1noc(=O)c2ccc(NC(=O)C(O)(CC(C)(C)c3ccccc3)C(F)(F)F)cc12 (stereo not shown) [Example 42, 6-(2-Hydroxy-4-methyl-4-phenyl-2-trifluoromethyl-valeroyl-amino)-4-methyl-2,3-benzoxazin-1-one]
- melting point: 172 to 173 °C

SMILES: Cc1noc(=O)c2ccc(NC(=O)C(O)(CC(C)(C)c3ccccc3)C(F)(F)F)cc12 (stereo not shown) [Example 106]
- melting point: 123 °C
- Competition Factor (Reference Substance 3H-Progesterone) [1]: 0.55
